The values that follow are results of earlier work, collected in patent US8802627B2, “Fusion protein composed of matrix metalloproteinase-2 inhibitor peptide derived from amyloid-B precursor protein and tissue inhibitor of metalloproteinase-2” (Oriental Yeast Co., Ltd., priority 2008, dated 2014).

pIC50: −log10 of the molar value.

One series addresses MMP-9 (Homo sapiens, UniProt P14780). The conditions noted are these: prior art literature, J. Biol. Chem. 278, 14020-14028, 2003; read-out: reported IC50 upon MMP-9.
The target of another series is T1, MMP-2 (Homo sapiens, UniProt P08253).
T1 construct: which now consists of 551 amino acid residues is designated active MMP-2
T1 sequence (P08253 110-660): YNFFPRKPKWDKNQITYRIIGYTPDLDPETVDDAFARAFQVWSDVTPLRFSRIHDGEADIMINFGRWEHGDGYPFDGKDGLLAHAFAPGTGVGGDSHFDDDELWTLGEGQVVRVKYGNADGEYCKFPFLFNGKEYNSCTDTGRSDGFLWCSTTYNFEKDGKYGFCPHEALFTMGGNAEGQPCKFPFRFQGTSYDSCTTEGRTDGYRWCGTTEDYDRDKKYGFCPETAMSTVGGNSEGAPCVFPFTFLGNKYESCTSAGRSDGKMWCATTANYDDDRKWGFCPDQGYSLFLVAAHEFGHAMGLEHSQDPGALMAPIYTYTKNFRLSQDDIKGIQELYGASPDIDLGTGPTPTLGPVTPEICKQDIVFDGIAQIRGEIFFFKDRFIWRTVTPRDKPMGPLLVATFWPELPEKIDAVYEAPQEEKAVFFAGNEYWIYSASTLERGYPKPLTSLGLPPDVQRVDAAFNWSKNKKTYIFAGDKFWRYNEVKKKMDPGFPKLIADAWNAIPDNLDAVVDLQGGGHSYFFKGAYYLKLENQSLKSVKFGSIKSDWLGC
The conditions noted are these: prior art literature, J. Biol. Chem. 278, 14020-14028, 2003; read-out: reported IC50 upon MMP-2.

A further series has as its target MT1-MMP catalytic domain (Homo sapiens, UniProt P50281). To be noted: prior art literature, J. Biol. Chem. 278, 14020-14028, 2003; read-out: reported IC50 upon MT1-MMP catalytic domain.
The target of the next series is T2, MMP-7 (Homo sapiens, UniProt P09237).
T2 sequence (P09237 95-267): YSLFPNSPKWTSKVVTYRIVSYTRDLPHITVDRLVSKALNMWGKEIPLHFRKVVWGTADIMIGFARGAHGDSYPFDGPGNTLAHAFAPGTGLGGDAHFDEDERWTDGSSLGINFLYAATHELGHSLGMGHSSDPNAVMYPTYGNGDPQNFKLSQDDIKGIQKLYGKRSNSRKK
The conditions noted are these: prior art literature, J. Biol. Chem. 278, 14020-14028, 2003; read-out: reported IC50 upon MMP-7.

Sequence of MMP-9 (P14780 94-707): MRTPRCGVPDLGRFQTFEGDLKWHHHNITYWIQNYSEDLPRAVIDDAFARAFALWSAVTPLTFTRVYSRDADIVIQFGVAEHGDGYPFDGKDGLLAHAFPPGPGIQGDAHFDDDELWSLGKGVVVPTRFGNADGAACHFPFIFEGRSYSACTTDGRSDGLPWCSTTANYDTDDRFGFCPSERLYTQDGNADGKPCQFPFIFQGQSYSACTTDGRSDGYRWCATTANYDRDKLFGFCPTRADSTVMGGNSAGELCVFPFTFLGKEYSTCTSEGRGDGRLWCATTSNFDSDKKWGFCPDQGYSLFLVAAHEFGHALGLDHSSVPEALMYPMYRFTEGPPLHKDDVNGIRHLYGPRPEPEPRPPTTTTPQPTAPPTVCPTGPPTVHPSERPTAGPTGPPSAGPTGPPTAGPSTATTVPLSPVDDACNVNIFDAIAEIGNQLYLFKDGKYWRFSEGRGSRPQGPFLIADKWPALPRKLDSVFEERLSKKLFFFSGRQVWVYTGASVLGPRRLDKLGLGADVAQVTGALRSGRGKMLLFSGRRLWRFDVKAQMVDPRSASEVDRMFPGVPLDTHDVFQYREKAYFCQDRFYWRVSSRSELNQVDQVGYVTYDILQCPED

In the case of ISYGNDALMP [APP-IP], the pIC50 is 4.70 at MMP-9, 7.52 on MMP-2, 5.70 on MT1-MMP catalytic domain and 4.82 on MMP-7.
